Data on 24 molecules can be found in patent US10023570B2 (Array BioPharma, Inc., priority 2015, dated 2018).

The term IC50 denotes the point on the concentration scale where inhibition reaches its midpoint.

Assay [1] deals with Kif5b-RET fusion protein in HEK-293 cells (Homo sapiens, UniProt P07949). In words: cell-based. To be noted: HEK-293 cells expressing Kif5b-RET, read-out: KIF5B-RET pTYR1062 Cell IC50. The method, then: The cellular potency of a compound inhibiting RET kinase was determined in HEK-293 cells expressing a Kif5b-RET fusion protein. Briefly, HEK-293 cells expressing a Kif5b-RET fusion protein were plated at 50K cells/well in 96 well poly-D-Lysine coated plates the day prior to the assay. The cells were incubated for 1 hour with test compound in DMEM (Dulbecco's Modified Eagle Medium) at a final DMSO concentration of 0.5%. […] After 1 hour the media was removed, the cells were fixed with 3.8% formaldehyde for 20 min, washed with PBS, and permeabilized for 10 min with 100% methanol. […] All antibodies were diluted in LI-COR Block containing 0.05% Tween. The plates were washed with PBS-0.05% Tween20, 100 μL PBS was added to each well, and the plates were read on a LI-COR Aerius fluorescent plate reader. The phospho-RET signal was normalized to the GAPDH signal. […] The IC50 value is the point where the curve crosses 50 POC.
Chain of Kif5b-RET fusion protein in HEK-293 cells (P07949 29-1114 limits assumed): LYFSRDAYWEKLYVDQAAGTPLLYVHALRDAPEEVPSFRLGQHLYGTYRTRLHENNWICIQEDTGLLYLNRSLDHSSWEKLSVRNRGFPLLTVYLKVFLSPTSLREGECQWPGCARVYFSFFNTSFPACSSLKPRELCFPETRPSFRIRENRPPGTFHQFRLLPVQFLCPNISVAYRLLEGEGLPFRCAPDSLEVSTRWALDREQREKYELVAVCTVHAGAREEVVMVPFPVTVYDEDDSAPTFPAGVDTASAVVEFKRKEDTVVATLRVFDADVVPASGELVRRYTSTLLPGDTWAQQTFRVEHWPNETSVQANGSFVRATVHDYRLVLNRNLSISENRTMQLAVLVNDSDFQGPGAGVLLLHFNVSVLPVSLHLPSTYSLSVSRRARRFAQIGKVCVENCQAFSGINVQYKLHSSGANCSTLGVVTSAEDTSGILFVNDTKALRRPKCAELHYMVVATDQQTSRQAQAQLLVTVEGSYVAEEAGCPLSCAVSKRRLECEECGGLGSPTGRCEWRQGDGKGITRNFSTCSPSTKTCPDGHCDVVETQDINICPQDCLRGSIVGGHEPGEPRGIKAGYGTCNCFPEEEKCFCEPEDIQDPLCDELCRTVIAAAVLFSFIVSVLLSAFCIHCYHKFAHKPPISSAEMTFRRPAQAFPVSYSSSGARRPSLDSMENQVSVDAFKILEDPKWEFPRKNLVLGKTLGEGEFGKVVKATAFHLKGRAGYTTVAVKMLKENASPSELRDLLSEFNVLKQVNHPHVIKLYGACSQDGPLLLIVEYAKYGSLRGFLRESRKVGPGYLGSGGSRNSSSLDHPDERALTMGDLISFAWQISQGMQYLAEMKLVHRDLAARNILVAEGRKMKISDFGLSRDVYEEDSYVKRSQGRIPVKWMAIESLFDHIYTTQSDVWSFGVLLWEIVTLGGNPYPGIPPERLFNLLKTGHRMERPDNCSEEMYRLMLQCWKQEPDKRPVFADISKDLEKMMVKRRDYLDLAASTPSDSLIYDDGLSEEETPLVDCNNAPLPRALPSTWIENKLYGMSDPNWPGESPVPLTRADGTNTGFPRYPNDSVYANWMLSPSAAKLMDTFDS

Assay [2] has as its target N-terminal GST tagged recombinant human RET cytoplasmic domain (aa 658-end), wild type RET kinase (Homo sapiens (Human), UniProt P07949). In words: RET Enzyme Assay (HTRF KinEASE-TK), wild type RET. The format is biochemical.
In assay [3] the target is human KDR protein in HEK-293 cells (Homo sapiens (Human), UniProt P35968). In words: KDR Cell Assay (phospho-KDR in HEK-293 cells expressing inducible KDR). It counts as cell-based. To be noted: pKDR Cell HEK 10% FBS IC50, HEK-293 cells expressing inducible KDR, VEGF stimulated. The method in brief:
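HEK-293 cells with inducible human KDR were treated with compound for 1 h in DMEM (0.25% DMSO final), then lysed. Phospho-KDR was quantified by Meso Scale immunoassay, expressed as percent of control, and IC50 taken where a 4-parameter logistic fit crossed 50 POC.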

Counter-ions that a name gives are not always drawn. Like-named read-outs stand apart in the source and are kept apart here.

Chain of human KDR protein in HEK-293 cells (P35968 20-1356): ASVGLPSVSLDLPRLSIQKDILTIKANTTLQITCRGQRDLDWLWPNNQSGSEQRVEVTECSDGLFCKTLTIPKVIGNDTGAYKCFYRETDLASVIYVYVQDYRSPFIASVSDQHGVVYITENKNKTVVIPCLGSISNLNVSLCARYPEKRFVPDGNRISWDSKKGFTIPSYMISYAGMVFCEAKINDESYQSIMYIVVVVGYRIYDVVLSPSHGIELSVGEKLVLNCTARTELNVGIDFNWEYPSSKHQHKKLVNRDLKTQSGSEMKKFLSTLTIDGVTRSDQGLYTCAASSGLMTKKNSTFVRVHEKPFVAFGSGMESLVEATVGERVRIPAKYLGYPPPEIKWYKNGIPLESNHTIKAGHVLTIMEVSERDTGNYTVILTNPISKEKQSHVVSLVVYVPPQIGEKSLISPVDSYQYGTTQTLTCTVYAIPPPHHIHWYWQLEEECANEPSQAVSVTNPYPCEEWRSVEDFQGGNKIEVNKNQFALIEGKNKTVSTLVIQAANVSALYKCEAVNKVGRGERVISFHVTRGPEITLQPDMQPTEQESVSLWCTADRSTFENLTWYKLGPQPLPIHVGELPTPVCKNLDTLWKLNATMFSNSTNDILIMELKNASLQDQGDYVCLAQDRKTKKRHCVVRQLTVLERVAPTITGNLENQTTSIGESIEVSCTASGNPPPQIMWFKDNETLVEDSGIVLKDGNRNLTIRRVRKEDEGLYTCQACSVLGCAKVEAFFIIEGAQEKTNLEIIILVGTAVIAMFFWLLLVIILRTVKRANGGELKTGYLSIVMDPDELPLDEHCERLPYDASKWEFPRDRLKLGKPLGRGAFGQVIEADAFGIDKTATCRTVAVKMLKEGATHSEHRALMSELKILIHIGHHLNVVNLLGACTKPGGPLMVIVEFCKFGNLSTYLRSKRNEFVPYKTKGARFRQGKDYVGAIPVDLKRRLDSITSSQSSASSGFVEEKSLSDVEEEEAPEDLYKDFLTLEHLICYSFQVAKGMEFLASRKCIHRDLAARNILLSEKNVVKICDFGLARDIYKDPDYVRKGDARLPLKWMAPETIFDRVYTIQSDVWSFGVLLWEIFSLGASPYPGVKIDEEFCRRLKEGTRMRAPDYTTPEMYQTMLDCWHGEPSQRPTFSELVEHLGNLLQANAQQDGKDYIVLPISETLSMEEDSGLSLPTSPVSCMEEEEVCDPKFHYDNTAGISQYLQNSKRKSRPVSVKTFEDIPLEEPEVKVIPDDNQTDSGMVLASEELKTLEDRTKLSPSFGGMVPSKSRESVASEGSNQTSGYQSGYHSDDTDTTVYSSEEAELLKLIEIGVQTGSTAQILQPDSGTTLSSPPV
Chain of N-terminal GST tagged recombinant human RET cytoplasmic domain (aa 658-end), wild type RET kinase (P07949 658-1114): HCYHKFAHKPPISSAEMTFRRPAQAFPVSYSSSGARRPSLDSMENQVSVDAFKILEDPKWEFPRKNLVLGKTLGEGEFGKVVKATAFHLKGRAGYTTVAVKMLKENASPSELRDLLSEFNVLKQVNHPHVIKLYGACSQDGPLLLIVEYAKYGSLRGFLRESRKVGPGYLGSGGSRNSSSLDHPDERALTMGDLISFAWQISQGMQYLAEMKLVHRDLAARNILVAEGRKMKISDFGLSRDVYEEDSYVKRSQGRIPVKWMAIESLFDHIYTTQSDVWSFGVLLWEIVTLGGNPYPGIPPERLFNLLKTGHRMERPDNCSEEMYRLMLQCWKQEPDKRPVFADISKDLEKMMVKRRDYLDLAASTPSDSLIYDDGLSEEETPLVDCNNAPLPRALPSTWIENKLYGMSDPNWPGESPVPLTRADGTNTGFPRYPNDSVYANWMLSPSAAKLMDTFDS

Regarding `Cc1cnn2cc(-c3cnn(C)c3)cc(-c3ccc(N4CCN(Cc5ccccc5)CC4)nc3)c12` [Example 653, 4-(6-(4-benzylpiperazin-1-yl)pyridin-3-yl)-3-methyl-6-(1-methyl-1H-pyrazol-4-yl)pyrazolo[1,5-a]pyridine], the IC50 came out at 69.4 nM in assay [1] and 86.9 nM in assay [2] (wild type RET, 1 mM ATP). As to `CC(C)NC(=O)[C@@H]1CCCN(c2ccc(-c3cc(-c4cnn(C)c4)cn4ncc(C#N)c34)cn2)C1` [Example 229, (R)-1-(5-(3-cyano-6-(1-methyl-1H-pyrazol-4-yl)pyrazolo[1,5-a]pyridin-4-yl)pyridin-2-yl)-N-isopropylpiperidine-3-carboxamide], the IC50 in assay [2] (wild type RET, 1 mM ATP) was found to be 334 nM. Turning to `Cn1cc(-c2cc(-c3ccc(N4CCC(S(=O)(=O)O)CC4)nc3)c3c(C#N)cnn3c2)cn1` [Example 568, 1-(5-(3-cyano-6-(1-methyl-1H-pyrazol-4-yl)pyrazolo[1,5-a]pyridin-4-yl)pyridin-2-yl)piperidine-4-sulfonic acid], the IC50 in assay [1] amounted to 5000 nM; in assay [2] (wild type RET, 1 mM ATP) it was 6.1 nM. The like results for `COCCCN1CCN(c2ccc(-c3cc(-c4cnn(C)c4)cn4ncc(C#N)c34)cn2)CC1` [Example 405, 4-(6-(4-(3-methoxypropyl)piperazin-1-yl)pyridin-3-yl)-6-(1-methyl-1H-pyrazol-4-yl)pyrazolo[1,5-a]pyridine-3-carbonitrile] were, in that order, 32.5 nM and 30.8 nM. For `Cn1cc(-c2cc(-c3ccc(N4CCC(C(=O)NOCCO)CC4)nc3)c3c(C#N)cnn3c2)cn1` [Example 566, 1-(5-(3-cyano-6-(1-methyl-1H-pyrazol-4-yl)pyrazolo[1,5-a]pyridin-4-yl)pyridin-2-yl)-N-(2-hydroxyethoxy)piperidine-4-carboxamide], the half-maximal inhibitory concentration (IC50) came out at 146 nM in assay [1] and 9 nM in assay [2] (wild type RET, 1 mM ATP). `Cc1cc(-c2cc(-c3cnn(C)c3)cn3ncc(C#N)c23)cnc1N1CCN(C(=O)OC(C)(C)C)CC1` [Example 275, tert-Butyl 4-(5-(3-cyano-6-(1-methyl-1H-pyrazol-4-yl)pyrazolo[1,5-a]pyridin-4-yl)-3-methylpyridin-2-yl)piperazine-1-carboxylate]: the IC50 in assay [2] (wild type RET, 1 mM ATP) turned out to be 1500 nM.

With `Cn1cc(-c2cc(-c3ccc(N4CCN(C(=O)CCS(C)(=O)=O)CC4)nc3)c3c(C#N)cnn3c2)cn1` [Example 3, 6-(1-methyl-1H-pyrazol-4-yl)-4-(6-(4-(3-(methylsulfonyl)propanoyl)piperazin-1-yl)pyridin-3-yl)pyrazolo[1,5-a]pyridine-3-carbonitrile], the IC50 in assay [1] (phospho-RET(Tyr1062)) came out at 119 nM; in assay [2] (wild type RET, 1 mM ATP), 11.9 nM.

On to `COc1ccc(CN2CCN(c3ccc(-c4cc(-c5cnn(CC(C)OC)c5)cn5ncc(C#N)c45)cn3)CC2)cn1` (stereo not drawn) [Example 709, 6-(1-(2-methoxypropyl)-1H-pyrazol-4-yl)-4-(6-(4-((6-methoxypyridin-3-yl)methyl)piperazin-1-yl)pyridin-3-yl)pyrazolo[1,5-a]pyridine-3-carbonitrile], for which the IC50 in assay [1] was 9.3 nM; in assay [2] (wild type RET, 1 mM ATP) it was 26.2 nM. For `COc1ccc(CN2CCN(c3ccc(-c4cc(-c5cnn(C(F)F)c5)cn5ncc(C#N)c45)cn3)CC2)cn1` [Example 696, 6-(1-(difluoromethyl)-1H-pyrazol-4-yl)-4-(6-(4-((6-methoxypyridin-3-yl)methyl)piperazin-1-yl)pyridin-3-yl)pyrazolo[1,5-a]pyridine-3-carbonitrile], the IC50 in assay [1] worked out at 16.1 nM.

On to `Cc1cc(-c2cc(-c3cnn(C)c3)cn3ncc(C#N)c23)cnc1N1CCN(C(=O)CC(C)(C)C)CC1` [Example 279, 4-(6-(4-(3,3-dimethylbutanoyl)piperazin-1-yl)-5-methylpyridin-3-yl)-6-(1-methyl-1H-pyrazol-4-yl)pyrazolo[1,5-a]pyridine-3-carbonitrile], for which the IC50 in assay [2] (wild type RET, 1 mM ATP) worked out at 318 nM. The same measure, in the same setting: to `CC(C)NC(=O)[C@H]1CCCN(c2ccc(-c3cc(-c4cnn(C)c4)cn4ncc(C#N)c34)cn2)C1` [Example 230, (S)-1-(5-(3-cyano-6-(1-methyl-1H-pyrazol-4-yl)pyrazolo[1,5-a]pyridin-4-yl)pyridin-2-yl)-N-isopropylpiperidine-3-carboxamide] belongs 242 nM. The same measure, in the same setting: to `Cn1cc(-c2cc(-c3ccc(N4CCN(C(=O)OC(C)(C)C)CC4)nc3)c3c(Br)cnn3c2)cn1` [Example 649, tert-butyl 4-(5-(3-bromo-6-(1-methyl-1H-pyrazol-4-yl)pyrazolo[1,5-a]pyridin-4-yl)pyridin-2-yl)piperazine-1-carboxylate] belongs 656 nM; to `Cc1cc(-c2cc(-c3cnn(C)c3)cn3ncc(C#N)c23)cnc1N1CCN(C(=O)CC(C)(C)O)CC1` [Example 277, 4-(6-(4-(3-hydroxy-3-methylbutanoyl)piperazin-1-yl)-5-methylpyridin-3-yl)-6-(1-methyl-1H-pyrazol-4-yl)pyrazolo[1,5-a]pyridine-3-carbonitrile], 300 nM; to `Cc1cnn2cc(-c3cnn(C)c3)cc(-c3ccc(N4CCNCC4)nc3)c12` [Example 651, 3-methyl-6-(1-methyl-1H-pyrazol-4-yl)-4-(6-(piperazin-1-yl)pyridin-3-yl)pyrazolo[1,5-a]pyridine], 208 nM. Same read-out and setting: to `Cc1cc(-c2cc(-c3cnn(C)c3)cn3ncc(C#N)c23)cnc1N1CCNCC1` [Example 276, 6-(1-methyl-1H-pyrazol-4-yl)-4-(5-methyl-6-(piperazin-1-yl)pyridin-3-yl)pyrazolo[1,5-a]pyridine-3-carbonitrile dihydrochloride] belongs 395 nM. As for `Cc1cnn2cc(-c3cnn(C)c3)cc(-c3ccc(N4CCN(C(=O)OC(C)(C)C)CC4)nc3)c12` [Example 650, tert-butyl 4-(5-(3-methyl-6-(1-methyl-1H-pyrazol-4-yl)pyrazolo[1,5-a]pyridin-4-yl)pyridin-2-yl)piperazine-1-carboxylate], the IC50 in assay [2] (wild type RET, 1 mM ATP) is 345 nM. In the case of `Cn1cc(-c2cc(-c3ccc(N4CCNCC4)nc3)c3ccnn3c2)cn1` [Example 312, 6-(1-methyl-1H-pyrazol-4-yl)-4-(6-(piperazin-1-yl)pyridin-3-yl)pyrazolo[1,5-a]pyridine dihydrochloride], the IC50 in assay [2] turned out to be 607 nM. The molecule `Cn1cc(-c2cc(-c3ccc(N4CCC(NC(=O)[C@H]5CCCO5)CC4)nc3)c3c(C#N)cnn3c2)cn1` [Example 178, (R)—N-(1-(5-(3-cyano-6-(1-methyl-1H-pyrazol-4-yl)pyrazolo[1,5-a]pyridin-4-yl)pyridin-2-yl)piperidin-4-yl)tetrahydrofuran-2-carboxamide] had an IC50 in assay [3] (10% FBS) of 426 nM. On the same count and under the same terms, with `Cn1cc(-c2cc(-c3ccc(N4CCC(NC(=O)c5ccccc5)CC4)nc3)c3c(C#N)cnn3c2)cn1` [Example 184, N-(1-(5-(3-cyano-6-(1-methyl-1H-pyrazol-4-yl)pyrazolo[1,5-a]pyridin-4-yl)pyridin-2-yl)piperidin-4-yl)benzamide] the figure was 75.2 nM; with `CC(C)OC(=O)N1CC2(CCN(c3ccc(-c4cc(-c5cnn(C)c5)cn5ncc(C#N)c45)cn3)CC2)C1` [Example 222, isopropyl 7-(5-(3-cyano-6-(1-methyl-1H-pyrazol-4-yl)pyrazolo[1,5-a]pyridin-4-yl)pyridin-2-yl)-2,7-diazaspiro[3.5]nonane-2-carboxylate], 257 nM; with `CCN(CC)C(C(=O)N1CCN(c2ccc(-c3cc(-c4cnn(C)c4)cn4ncc(C#N)c34)cn2)CC1)c1ccccc1` (stereo not drawn) [Example 364, 4-(6-(4-(2-(diethylamino)-2-phenylacetyl)piperazin-1-yl)pyridin-3-yl)-6-(1-methyl-1H-pyrazol-4-yl)pyrazolo[1,5-a]pyridine-3-carbonitrile bis(2,2,2-trifluoroacetate)], 4360 nM.

In the case of `Cn1cc(-c2cc(-c3ccc(N4CCN(C(=O)c5c(F)cccc5F)CC4)nc3)c3c(C#N)cnn3c2)cn1` [Example 51, 4-(6-(4-(2,6-difluorobenzoyl)piperazin-1-yl)pyridin-3-yl)-6-(1-methyl-1H-pyrazol-4-yl)pyrazolo[1,5-a]pyridine-3-carbonitrile 2,2,2-trifluoroacetate], the IC50 in assay [3] (10% FBS) turned out to be 267 nM.

In assay [3], `Cn1cc(-c2cc(-c3ccc(N4CCN(C(=O)N5CCC(C6CC6)C5)CC4)nc3)c3c(C#N)cnn3c2)cn1` (stereo not drawn) [Example 388, 4-(6-(4-(3-cyclopropylpyrrolidine-1-carbonyl)piperazin-1-yl)pyridin-3-yl)-6-(1-methyl-1H-pyrazol-4-yl)pyrazolo[1,5-a]pyridine-3-carbonitrile] yielded a concentration for half-maximal inhibition (IC50) of 346 nM. `Cn1cc(-c2cc(-c3ccc(N4CCC(c5ccccc5)C4)nc3)c3c(C#N)cnn3c2)cn1` (stereo not drawn) [Example 533, 6-(1-methyl-1H-pyrazol-4-yl)-4-(6-(3-phenylpyrrolidin-1-yl)pyridin-3-yl)pyrazolo[1,5-a]pyridine-3-carbonitrile 2,2,2-trifluoroacetate]: the IC50 in assay [3] was determined as 4860 nM.
